Measurements: patent US20240315989A1 (priority 2021, published 2024)
Read-outs that look alike come from different tables or passages of the source.

Key:
SARS-CoV-2 infection = assay: Retrospective cohort (BJC Healthcare): antidepressant exposure and ED or hospital encounter within 30 days; type: in vivo, human; conditions: share of exposed outpatients with an encounter after a positive SARS-CoV-2 test
[1] = tested on: COVID-19 (SARS-CoV-2 infection)
COVID-19 [2] = conditions: follow-up questionnaire
COVID-19 [3] = tested on: COVID-19
COVID-19 [4] = tested on: COVID-19; remark: listed apart in the source
COVID-19 [5] = conditions: cited from earlier work
[6] = tested on: LPS- or fecal slurry-induced inflammatory response; conditions: cited from earlier work; for Survival: wildtype mice, LPS, IRE1-mediated inflammation, fecal-induced peritonitis
[7] = tested on: experimental autoimmune encephalomyelitis (EAE); conditions: cited from earlier work
[8] = tested on: α1-, α2-, β-adrenergic, muscarinic, dopamine D2, histamine H1, GABA-benzodiazepine, opiate, 5-HT1, or 5-HT2 receptors; conditions: cited from earlier work
[9] = cited from earlier work
[10] = intent to treat analysis of 1649 participants
[11] = pooled, fluvoxamine vs blinded placebo
[12] = two randomized trials pooled, intent to treat
[13] = Bayesian, moderately optimistic prior

COCCCC/C(=N\OCCN)c1ccc(C(F)(F)F)cc1.O=C(O)/C=C\C(=O)O [fluvoxamine, 5-methoxy-4′-(trifluoromethyl)valerophenone-(E)-O-(2-aminoethyl)oxime maleate (1:1)]
ED or hospital encounter within 30 days, % (SARS-CoV-2 infection): 21.1% | Clinical status on 7-point scale, difference between group means vs placebo [1]: −0.22 | Most severe baseline symptom change score, difference between group means vs placebo [1]: 0.3 | 30-d post trial observation events, % ([1]; 30 days after day 15): (1.3) % | Most severe baseline symptom change score (difference between baseline and final rating) ([1]; day 0 to day 15, 0-10 scale): −5.6 | 30-d post trial observation events, absolute difference vs placebo ([1]; difference in proportions): −0.1 | Absolute difference vs placebo, 7-point scale 0 (none) ([1]; difference in proportions): 8.3 | Absolute difference vs placebo, 7-point scale 1 ([1]; difference in proportions): −2.8 | Absolute difference vs placebo, 7-point scale 3 ([1]; difference in proportions): −4.2 | Absolute difference vs placebo, 7-point scale 5 ([1]; difference in proportions): −1.4 | Absolute difference vs placebo, 7-point scale any nonzero value ([1]; difference in proportions): −8.3 | Clinical status on 7-point scale, mean (SD) ([1]; n = 80): 0 | WHO scale, 0-1 = uninfected or ambulatory, % ([1]; n = 80): (100%) | WHO scale, 2 = limitation of activities, % ([1]; n = 80): (0%) | WHO scale, 2 = limitation of activities, No ([1]; n = 80): 0 | WHO scale, 3 = hospitalized, no O2 needed, % ([1]; n = 80): (0%) | WHO scale, 3 = hospitalized, no O2 needed, No ([1]; n = 80): 0 | WHO scale, 4 = hospitalized, O2 needed, % ([1]; n = 80): (0%) | WHO scale, 4 = hospitalized, O2 needed, No ([1]; n = 80): 0 | WHO scale, 5 = non-invasive vent or high-flow O2, % ([1]; n = 80): (0%) | WHO scale, 5 = non-invasive vent or high-flow O2, No ([1]; n = 80): 0 | WHO scale, 6 = ventilator needed, % ([1]; n = 80): (0%) | WHO scale, 6 = ventilator needed, No ([1]; n = 80): 0 | WHO scale, 7 = ventilator + additional organ support, % ([1]; n = 80): (0%) | WHO scale, 7 = ventilator + additional organ support, No ([1]; n = 80): 0 | WHO scale, 8 = Death, % ([1]; n = 80): (0%) | WHO scale, total participants with values >1, % ([1]; n = 80): (0%) | WHO scale, total participants with values >1, No ([1]; n = 80): 0 | 7-point scale, 1 = O2 sat <92% but no supplemental O2, % ([1]; n = 80, 15 days): (0%) | 7-point scale, 1 = O2 sat <92% but no supplemental O2, No ([1]; n = 80, 15 days): 0 | 7-point scale, 2 = Above + supplemental O2 needed, % ([1]; n = 80, 15 days): (0%) | 7-point scale, 2 = Above + supplemental O2 needed, No ([1]; n = 80, 15 days): 0 | 7-point scale, 3 = Above + hospitalization needed, % ([1]; n = 80, 15 days): (0%) | 7-point scale, 3 = Above + hospitalization needed, No ([1]; n = 80, 15 days): 0 | 7-point scale, 4 = Above + ventilator needed (<3 days), % ([1]; n = 80, 15 days): (0%) | 7-point scale, 4 = Above + ventilator needed (<3 days), No ([1]; n = 80, 15 days): 0 | 7-point scale, 5 = Above + ventilator needed (≥3 days), % ([1]; n = 80, 15 days): (0%) | 7-point scale, 5 = Above + ventilator needed (≥3 days), No ([1]; n = 80, 15 days): 0 | 7-point scale, 6 = Death, % ([1]; n = 80, 15 days): (0%) | 7-point scale, total participants with values >0 (any nonzero value), No ([1]; n = 80, 15 days): 0 | 7-point scale, total participants with values >0, % ([1]; n = 80, 15 days): (0%) | 30-d post trial observation events (emergency department visit, hospitalization, or both), No. ([1]; of 80, 30 days after day 15): 1 | Maximum dose tolerated over 15 days 200 mg/day (100 twice daily), % (STOP COVID trial dosing): (45%) | Maximum dose tolerated over 15 days 200 mg/day (100 twice daily), Number (STOP COVID trial dosing): 36 | Maximum dose tolerated over 15 days 300 mg/day (100 three times daily), % (STOP COVID trial dosing): (50%) | Maximum dose tolerated over 15 days 300 mg/day (100 three times daily), Number (STOP COVID trial dosing): 40 | Not able to reach 200 mg/day, % (STOP COVID trial dosing): (5%) | Not able to reach 200 mg/day, Number (STOP COVID trial dosing): 4 | Acute on chronic respiratory failure, % (StopCovid, N = 80): (0%) | Acute on chronic respiratory failure, number (StopCovid, N = 80): 0 | Bacterial infection, % (StopCovid, N = 80): (1.3%) | Bacterial infection, number (StopCovid, N = 80): 1 | Chest pain or tightness, % (StopCovid, N = 80): (0%) | Chest pain or tightness, number (StopCovid, N = 80): 0 | Fever, % (StopCovid, N = 80): (0%) | Fever, number (StopCovid, N = 80): 0 | Flank pain, % (StopCovid, N = 80): (0%) | Flank pain, number (StopCovid, N = 80): 0 | Gastroenteritis, nausea, or vomiting, % (StopCovid, N = 80): (1.3%) | Gastroenteritis, nausea, or vomiting, number (StopCovid, N = 80): 1 | Headache or head pain, % (StopCovid, N = 80): (2.5%) | Headache or head pain, number (StopCovid, N = 80): 2 | Number of patients with any serious adverse event (StopCovid, N = 80): 1 | Number of patients with any serious adverse event, % (StopCovid, N = 80): (1.3%) | Number with any adverse event (StopCovid, N = 80): 12 | Number with any adverse event, % (StopCovid, N = 80): (15%) | Pneumonia, % (StopCovid, N = 80): (3.8%) | Pneumonia, number (StopCovid, N = 80): 3 | Shortness of breath, % (StopCovid, N = 80): (2.5%) | Shortness of breath, number (StopCovid, N = 80): 2 | Teeth chattering, % (StopCovid, N = 80): (1.3%) | Teeth chattering, number (StopCovid, N = 80): 1 | Vasovagal syncope, % (StopCovid, N = 80): (1.3%) | Vasovagal syncope, number (StopCovid, N = 80): 1 | hypercapnia, % (StopCovid, N = 80): (0%) | hypercapnia, number (StopCovid, N = 80): 0 | muscle aches, % (StopCovid, N = 80): (1.3%) | muscle aches, number (StopCovid, N = 80): 1 | Acute respiratory failure, No. of adverse events (%) (n = 80, 15 days): 0 No. (%) | Bacterial infection, No. of adverse events (%) (n = 80, 15 days): 1 (1.3) No. (%) | Chest pain or tightness, No. of adverse events (%) (n = 80, 15 days): 0 No. (%) | Fever, No. of adverse events (%) (n = 80, 15 days): 0 No. (%) | Flank pain, No. of adverse events (%) (n = 80, 15 days): 0 No. (%) | Gastroenteritis, nausea, or vomiting, No. of adverse events (%) (n = 80, 15 days): 1 (1.3) No. (%) | Headache or head pain, No. of adverse events (%) (n = 80, 15 days): 2 (2.5) No. (%) | Hypercapnia, No. of adverse events (%) (n = 80, 15 days): 0 No. (%) | Muscle aches, No. of adverse events (%) (n = 80, 15 days): 1 (1.3) No. (%) | Other adverse events, by No. of patients (%) (n = 80, 15 days): 11 (13.8) No. (%) | Pneumonia, No. of adverse events (%) (n = 80, 15 days): 3 (3.8) No. (%) | Serious adverse events, by No. of patients (%) (n = 80, 15 days): 1 (1.3) No. (%) | Shortness of breath, No. of adverse events (%) (n = 80, 15 days): 2 (2.5) No. (%) | Teeth chattering, No. of adverse events (%) (n = 80, 15 days): 1 (1.3) No. (%) | Vasovagal syncope, No. of adverse events (%) (n = 80, 15 days): 1 (1.3) No. (%) | Ache in chest wall (ribs/sternum) present during the course of COVID-19, % (COVID-19 [2]): (33%) | Ache in chest wall (ribs/sternum) present within past 48 hours at follow-up, % (COVID-19 [2]): (11%) | Chest pain that worsens when taking a deep breath, present during the course of COVID-19, % (COVID-19 [2]): (37%) | Chest pain that worsens when taking a deep breath, present within past 48 hours at follow-up, % (COVID-19 [2]): (17%) | Chest pressure present during the course of COVID-19, % (COVID-19 [2]): (54%) | Chest pressure present within past 48 hours at time of follow-up, % (COVID-19 [2]): (17%) | Chest tightness present during the course of COVID-19, % (COVID-19 [2]): (54%) | Chest tightness present within past 48 hours at follow-up, % (COVID-19 [2]): (17%) | Pain deep inside the chest present during the course of COVID-19, % (COVID-19 [2]): (31%) | Pain deep inside the chest present within past 48 hours at follow-up, % (COVID-19 [2]): (9%) | Sharp chest pains present during the course of COVID-19, % (COVID-19 [2]): (33%) | Sharp chest pains present within past 48 hours at follow-up, % (COVID-19 [2]): (13%) | reduction in hospitalizations (COVID-19 [3]; [10]): Summary of the two randomized clinical trial data demonstrate a 25% | reduction in progression to severe disease with hypoxia ≤92%, ER visit >6 hour (with hypoxia), or hospitalizations (COVID-19 [3]; [10]): reduction in hospitalizations and 36% reduction in progression to severe | reduction in hospitalizations (COVID-19 [3]; intent to treat, vs placebo): 25% | Number needed to treat (COVID-19 [3]; pooled): approximately 20 | Hospitalization, Absolute Risk Reduction (COVID-19 [3]; [11]): 3.1% | Mortality, Absolute Risk Reduction (COVID-19 [3]; [11]): 0.9% | Progression to Severe COVID-19, Absolute Risk Reduction (COVID-19 [3]; [11]): 5.4% | Hospitalization, % (COVID-19 [3]; [12]): 9.3% | Hospitalization, n/N (COVID-19 [3]; [12]): (76/821) | Mortality, % (COVID-19 [3]; [12]): 2.1% | Mortality, n/N (COVID-19 [3]; [12]): (17/821) | Progression to Severe COVID-19 (Hospitalization or ER Visit >6 hr or Hypoxia <92%), % (COVID-19 [3]; [12]): 9.6% | Progression to Severe COVID-19, n/N (COVID-19 [3]; [12]): (79/821) | Probability RR <1 (COVID-19 [4]; [13]): 97.2% | Probability RR ≤0.9 (COVID-19 [4]; [13]): 89.9% | Probability RR <1 (COVID-19 [4]; Bayesian, weakly neutral prior): 94.1% | Probability RR ≤0.9 (COVID-19 [4]; Bayesian, weakly neutral prior): 81.6% | Probability RR <1 (COVID-19 [4]; Frequentist analysis): 98.3% | Probability RR ≤0.9 (COVID-19 [4]; Frequentist analysis): 91.1% | Probability of at least a moderate effect (COVID-19 [4]; frequentist meta-analysis): 91.1% | Probability that fluvoxamine prevents hospitalization (COVID-19 [4]; frequentist meta-analysis): 98.3% | HR for death vs matched controls (COVID-19 [5]; 95% CI 0.36-0.94): 0.58 | Patients who died, % (COVID-19 [5]; ICU patients, 100 mg three times daily): 58.8% | Reduced risk of death vs matched controls (COVID-19 [5]; in vivo): 42% | Patients who died, No. (COVID-19 [5]; of 51 ICU patients, 100 mg three times daily): 30 | Effect on endotoxic shock-induced death ([6]; S1R KO animals): no significant effect | Cytokine levels ([6]; wildtype mice exposed to LPS or fecal slurry): reduced cytokine levels | Survival [6]: increased survival | Survival ([6]; listed as FLV): enhanced survival | Severity of EAE ([7]; rats, also when treatment began 12 days post-induction): reduces the severity | IFN-γ serum levels ([7]; vs untreated EAE rats): decrease | IL-4 serum levels ([7]; vs untreated EAE rats): increase | Affinity for α1-, α2-, β-adrenergic, muscarinic, dopamine D2, histamine H1, GABA-benzodiazepine, opiate, 5-HT1, or 5-HT2 receptors [8]: negligible affinity | Nausea, % of patients ([9]; 35,368 people, 66 studies): 15.7% | Another serious adverse event (suicide attempt, depression, death, accidental injury) ([9]; in vivo): < 0.4% | Serious adverse events requiring hospitalization ([9]; in vivo): 1.6% | Serious adverse events, % of people ([9]; taking the medication for a psychiatric disorder): approximately 2.0%
